Data: patent US20240270762A1, “PENICILLIN-BINDING PROTEIN INHIBITORS” (priority 2021, published 2024)
Values after ≈ are worked out from the molar mass of the structure shown.

Columns and labels:
Assay type in all cases: cell-based
A. baumannii CDC-0083 = experiment: microbe, parasite or virus in culture; conditions: Acinetobacter baumannii, CDC0083, read-out: MIC, A. baumannii CDC-0083
B. pseudomallei Bp82 = experiment: microbe, parasite or virus in culture; conditions: Burkholderia pseudomallei, BP82, read-out: Minimum inhibitory concentration, B. pseudomallei Bp82
K. pneumoniae SI-117 = experiment: microbe, parasite or virus in culture; conditions: Klebsiella pneumoniae, SI117, read-out: MIC K. pneumoniae SI-117
E. coli AG100A = experiment: Broth microdilution MIC in CAMHB; conditions: Escherichia coli, read-out: MIC E. coli AG100A
K. pneumoniae 848844 = experiment: microbe, parasite or virus in culture; conditions: Klebsiella pneumoniae, 848844, read-out: MIC K. pneumoniae 848844
A. baumannii ATCC 19606 = experiment: microbe, parasite or virus in culture; conditions: Acinetobacter baumannii, ATCC19606, read-out: MIC, A. baumannii ATCC 19606
[1] = system: P. aeruginosa (ΔmexAB-oprM); experiment: Broth microdilution MIC in CAMHB; conditions: Pseudomonas aeruginosa; read-out: MIC P. aeruginosa ΔmexAB-oprM
E. coli D22 = experiment: microbe, parasite or virus in culture; conditions: Escherichia coli, D22, read-out: MIC E. coli D22
E. coli 901C = experiment: microbe, parasite or virus in culture; conditions: Escherichia coli, read-out: MIC E. coli 901C
P. aeruginosa ATCC 27853 = experiment: microbe, parasite or virus in culture; conditions: Pseudomonas aeruginosa, ATCC27853, read-out: MIC P. aeruginosa ATCC 27853
E. coli ATCC 25922 = experiment: microbe, parasite or virus in culture; conditions: Escherichia coli, ATCC25922, read-out: MIC E. coli 25922
P. aeruginosa ATCC 35151 = experiment: microbe, parasite or virus in culture; conditions: Pseudomonas aeruginosa, ATCC35151, read-out: MIC P. aeruginosa ATCC 35151
E. coli AG100 = experiment: microbe, parasite or virus in culture; conditions: Escherichia coli, AG100, read-out: MIC E. coli AG100
K. pneumoniae UMM = experiment: microbe, parasite or virus in culture; conditions: Klebsiella pneumoniae, read-out: MIC K. pneumoniae UMM

Row | SMILES | MIC (A. baumannii CDC-0083) [µg/mL] | MIC (B. pseudomallei Bp82) [µg/mL] | further results
1 | O=C(NCCS(=O)(=O)N1CCN(C(=O)NC(C(=O)N[C@H]2Cc3ccc(F)c(C(=O)O)c3OB2O)c2cc(F)c(O)c(O)c2Cl)C1=O)c1cccnc1 (stereo partly drawn) [Example 262, (3R)-3-(2-(2-chloro-5-fluoro-3,4-dihydroxyphenyl)-2-(3-((2-(nicotinamido)ethyl)sulfonyl)-2-oxoimidazolidine-1-carboxamido)acetamido)-7-fluoro-2-hydroxy-3,4-dihydro-2H-benzo[e][1,2]oxaborinine-8-carboxylic acid] | < 1 | < 1 | 
2 | O=C(O)c1c(F)ccc2c1OB(O)[C@@H](NC(=O)C(NC(=O)N1CCN(S(=O)(=O)CCCNC(=O)[C@@H]3CCCN3)C1=O)c1cc(F)c(O)c(O)c1Cl)C2 (stereo partly drawn) [Example 275, (3R)-3-(2-(2-chloro-5-fluoro-3,4-dihydroxyphenyl)-2-(2-oxo-3-((3-((S)-pyrrolidine-2-carboxamido)propyl)sulfonyl)imidazolidine-1-carboxamido)acetamido)-7-fluoro-2-hydroxy-3,4-dihydro-2H-benzo[e][1,2]oxaborinine-8-carboxylic acid] | 2 to 4 (≈ 2.59 to 5.18 µM) | < 1 | 
3 | O=C(NCCCN1CCN(C(=O)NC(C(=O)N[C@H]2Cc3ccc(F)c(C(=O)O)c3OB2O)c2cc(F)c(O)c(O)c2Cl)C(=O)C1=O)c1nccs1 (stereo partly drawn) [Example 211, (3R)-3-(2-(2-chloro-5-fluoro-3,4-dihydroxyphenyl)-2-(2,3-dioxo-4-(3-(thiazole-2-carboxamido)propyl)piperazine-1-carboxamido)acetamido)-7-fluoro-2-hydroxy-3,4-dihydro-2H-benzo[e][1,2]oxaborinine-8-carboxylic acid] | < 1 | < 1 | 
4 | O=C(NCCCN1CCN(C(=O)N[C@@H](C(=O)N[C@H]2Cc3ccc(F)c(C(=O)O)c3OB2O)c2cc(F)c(O)c(O)c2Cl)C(=O)C1=O)c1cccnc1 [Example 210, (R)-3-((R)-2-(2-chloro-5-fluoro-3,4-dihydroxyphenyl)-2-(4-(3-(nicotinamido)propyl)-2,3-dioxopiperazine-1-carboxamido)acetamido)-7-fluoro-2-hydroxy-3,4-dihydro-2H-benzo[e][1,2]oxaborinine-8-carboxylic acid] | 2 to 4 (≈ 2.69 to 5.37 µM) | < 1 | 
5 | O=C(NCCN1CCN(C(=O)NC(C(=O)N[C@H]2Cc3ccc(F)c(C(=O)O)c3OB2O)c2cc(F)c(O)c(O)c2Cl)C1=O)Nc1cccnc1 (stereo partly drawn) [Example 251, (3R)-3-(2-(2-chloro-5-fluoro-3,4-dihydroxyphenyl)-2-(2-oxo-3-(2-(3-(pyridin-3-yl)ureido)ethyl)imidazolidine-1-carboxamido)acetamido)-7-fluoro-2-hydroxy-3,4-dihydro-2H-benzo[e][1,2]oxaborinine-8-carboxylic acid] | 2 to 4 (≈ 2.79 to 5.57 µM) | < 1 | 
6 | O=C(NCCN1CCN(C(=O)NC(C(=O)N[C@H]2Cc3ccc(F)c(C(=O)O)c3OB2O)c2cc(F)c(O)c(O)c2Cl)C1=O)Nc1ccncc1 (stereo partly drawn) [Example 250, (3R)-3-(2-(2-chloro-5-fluoro-3,4-dihydroxyphenyl)-2-(2-oxo-3-(2-(3-(pyridin-4-yl)ureido)ethyl)imidazolidine-1-carboxamido)acetamido)-7-fluoro-2-hydroxy-3,4-dihydro-2H-benzo[e][1,2]oxaborinine-8-carboxylic acid] | < 1 | < 1 | 
7 | O=C(NCCCN1CCN(C(=O)NC(C(=O)N[C@H]2Cc3ccc(F)c(C(=O)O)c3OB2O)c2cc(F)c(O)c(O)c2Cl)C1=O)c1nccs1 (stereo partly drawn) [Example 257, (3R)-3-(2-(2-chloro-5-fluoro-3,4-dihydroxyphenyl)-2-(2-oxo-3-(3-(thiazole-2-carboxamido)propyl)imidazolidine-1-carboxamido)acetamido)-7-fluoro-2-hydroxy-3,4-dihydro-2H-benzo[e][1,2]oxaborinine-8-carboxylic acid] | < 1 | < 1 | 
8 | O=C(O)c1c(F)ccc2c1OB(O)[C@@H](NC(=O)C(NC(=O)N1CCN(CCCNC(=O)[C@@H]3CCCN3)C(=O)C1=O)c1cc(F)c(O)c(O)c1Cl)C2 (stereo partly drawn) [Example 212, (3R)-3-(2-(2-chloro-5-fluoro-3,4-dihydroxyphenyl)-2-(2,3-dioxo-4-(3-((S)-pyrrolidine-2-carboxamido)propyl)piperazine-1-carboxamido)acetamido)-7-fluoro-2-hydroxy-3,4-dihydro-2H-benzo[e][1,2]oxaborinine-8-carboxylic acid] | 32 to 64 (≈ 43.4 to 86.9 µM) | < 1 | 
9 | CN(CCN1CCN(C(=O)N[C@@H](C(=O)N[C@H]2Cc3ccc(F)c(C(=O)O)c3OB2O)c2cc(F)c(O)c(O)c2Cl)C(=O)C1=O)Cc1cncc(O)c1 [Example 208, (R)-3-((R)-2-(2-chloro-5-fluoro-3,4-dihydroxyphenyl)-2-(4-(2-(((5-hydroxypyridin-3-yl)methyl)(methyl)amino)ethyl)-2,3-dioxopiperazine-1-carboxamido)acetamido)-7-fluoro-2-hydroxy-3,4-dihydro-2H-benzo[e][1,2]oxaborinine-8-carboxylic acid] | < 1 | < 1 | 
10 | O=C(O)c1cccc2c1OB(O)[C@@H](NC(=O)[C@@H](NC(=O)c1cnc3n(c1=O)CCS3)c1ccc(P(=O)(O)O)cc1)C2 (single isomer, unassigned) [Example 196] |  |  | MIC (K. pneumoniae SI-117): > 128 µg/mL; MIC (E. coli AG100A): > 128 µg/mL; MIC (K. pneumoniae 848844): > 128 µg/mL; MIC (A. baumannii ATCC 19606): > 128 µg/mL; MIC [1]: > 128 µg/mL; MIC (E. coli D22): > 128 µg/mL; MIC (E. coli 901C): 32 to 64 µg/mL (≈ 53.3 to 107 µM); MIC (P. aeruginosa ATCC 27853): > 128 µg/mL; MIC (E. coli ATCC 25922): > 128 µg/mL; MIC (P. aeruginosa ATCC 35151): 8 to 16 µg/mL (≈ 13.3 to 26.7 µM); MIC (E. coli AG100): > 128 µg/mL; MIC (K. pneumoniae UMM): > 128 µg/mL
11 | CCN1CCN(C(=O)NC(C(=O)N[C@H]2Cc3cccc(C(=O)O)c3OB2O)c2ccc(P(=O)(O)O)c(F)c2O)C(=O)C1=O (stereo partly drawn) [Example 198, (3R)-3-(2-(4-ethyl-2,3-dioxopiperazine-1-carboxamido)-2-(3-fluoro-2-hydroxy-4-phosphonophenyl)acetamido)-2-hydroxy-3,4-dihydro-2H-benzo[e][1,2]oxaborinine-8-carboxylic acid] |  |  | MIC (K. pneumoniae SI-117): > 128 µg/mL; MIC (E. coli AG100A): 32 to 64 µg/mL (≈ 51.4 to 103 µM); MIC (K. pneumoniae 848844): > 128 µg/mL; MIC (A. baumannii ATCC 19606): 32 to 64 µg/mL (≈ 51.4 to 103 µM); MIC [1]: > 128 µg/mL; MIC (E. coli D22): 8 to 16 µg/mL (≈ 12.9 to 25.7 µM); MIC (E. coli 901C): < 1 µg/mL; MIC (P. aeruginosa ATCC 27853): > 128 µg/mL; MIC (E. coli ATCC 25922): > 128 µg/mL; MIC (P. aeruginosa ATCC 35151): 8 to 16 µg/mL (≈ 12.9 to 25.7 µM); MIC (E. coli AG100): > 128 µg/mL; MIC (K. pneumoniae UMM): 32 to 64 µg/mL (≈ 51.4 to 103 µM)
12 | O=C(NCCCN1CCN(C(=O)NC(C(=O)N[C@H]2Cc3ccc(F)c(C(=O)O)c3OB2O)c2cc(F)c(O)c(O)c2Cl)C(=O)C1=O)Nc1cccnc1 (stereo partly drawn) [Example 213, (3R)-3-(2-(2-chloro-5-fluoro-3,4-dihydroxyphenyl)-2-(2,3-dioxo-4-(3-(3-(pyridin-3-yl)ureido)propyl)piperazine-1-carboxamido)acetamido)-7-fluoro-2-hydroxy-3,4-dihydro-2H-benzo[e][1,2]oxaborinine-8-carboxylic acid] | 8 to 16 (≈ 10.5 to 21.1 µM) | < 1 | 
13 | O=C(NCCN1CCN(C(=O)NC(C(=O)N[C@H]2Cc3ccc(F)c(C(=O)O)c3OB2O)c2cc(F)c(O)c(O)c2Cl)C(=O)C1=O)c1cccnc1 (stereo partly drawn) [Example 217, (3R)-3-(2-(2-chloro-5-fluoro-3,4-dihydroxyphenyl)-2-(4-(2-(nicotinamido)ethyl)-2,3-dioxopiperazine-1-carboxamido)acetamido)-7-fluoro-2-hydroxy-3,4-dihydro-2H-benzo[e][1,2]oxaborinine-8-carboxylic acid] | > 128 | 8 to 16 (≈ 10.9 to 21.9 µM) | 
14 | O=C(NCCCN1CCN(C(=O)NC(C(=O)N[C@H]2Cc3ccc(F)c(C(=O)O)c3OB2O)c2cc(F)c(O)c(O)c2Cl)C1=O)c1ccncc1 (stereo partly drawn) [Example 256, (3R)-3-(2-(2-chloro-5-fluoro-3,4-dihydroxyphenyl)-2-(3-(3-(isonicotinamido)propyl)-2-oxoimidazolidine-1-carboxamido)acetamido)-7-fluoro-2-hydroxy-3,4-dihydro-2H-benzo[e][1,2]oxaborinine-8-carboxylic acid] | < 1 | < 1 | 
15 | O=C(O)c1c(F)ccc2c1OB(O)[C@@H](NC(=O)C(NC(=O)N1CCN(S(=O)(=O)CCNC(=O)[C@@H]3CCCN3)C1=O)c1cc(F)c(O)c(O)c1Cl)C2 (stereo partly drawn) [Example 265, (3R)-3-(2-(2-chloro-5-fluoro-3,4-dihydroxyphenyl)-2-(2-oxo-3-((2-((S)-pyrrolidine-2-carboxamido)ethyl)sulfonyl)imidazolidine-1-carboxamido)acetamido)-7-fluoro-2-hydroxy-3,4-dihydro-2H-benzo[e][1,2]oxaborinine-8-carboxylic acid] | < 1 | < 1 | 
